In publication PMC11858205, “Radiolabeling and Preliminary In Vivo Evaluation of the Candidate CCR2 Targeting PET Radioligand [^11C]AZD2423” (Pharmaceuticals, 2025):

Experiments:
CCR2 [1] = tested on: CCR2; set-up: method as in PMID 23523116, PMID 29913894; conditions: no method in this paper; read-out: CCR2 IC50 (affinity); cited from earlier work
[2] = set-up: method as in PMID 23523116, PMID 29913894; conditions: no method in this paper; cited from earlier work
[3] = set-up: method as in PMID 26116114; conditions: brain tissue in vitro; cited from earlier work
[4] = Stability of the radioligand in formulation; assay type: physicochemical; conditions: 9% ethanol in PBS, pH 7.4
Procedure: Carbon-11 labeled radioligands for in vivo PET imaging studies are typically produced in giga-becquerel quantities. As our goal was to develop a synthesis methodology suitable for routine radioligand production, the [^11C]AZD2423 synthesis process was fully automated to improve its reliability and reproducibility. The complete process was performed using a previously described [^11C]CO prototype synthesis apparatus (GEMS, Uppsala, Sweden), which included the initial formation of the crude [^11C]AZD2423 product, followed by its isolation by semipreparative high-performance liquid chromatography (HPLC), solid-phase extraction (SPE), and sterile filtration to yield the formulated product. Using these conditions, [^11C]AZD2423 was prepared with radioactivities exceeding 1 GBq and the radiochemical purity (RCP) was greater than 99%. The synthesis process took approximately 40 min, and the molar activity (Am) at the time of injection ranged from 15 to 20 GBq/μmol (405 to 540 Ci/mmol). […] The average radiochemical yield for the synthesis of [^11C]AZD2423 was 7.4 ± 0.6% (n = 4, relative to the [^11C]CO2 at the start of synthesis). The identity of the labeled compound was verified by co-injecting it with a reference standard.

CCR1 = tested on: CCR1; set-up: method as in PMID 23523116, PMID 29913894; conditions: no method in this paper; cited from earlier work
CCR5 = tested on: CCR5; set-up: method as in PMID 23523116, PMID 29913894; conditions: no method in this paper; cited from earlier work
Other GPCR = tested on: Other GPCR; set-up: method as in PMID 23523116, PMID 29913894; conditions: no method in this paper; cited from earlier work
CCR2 [5] = target: T1, CCR2 (Macaca mulatta, UniProt O18793); assay: PET imaging in non-human primates at baseline and after pretreatment with AZD2423; assay type: in vivo, rhesus monkeys; conditions: for SUVpeak brain: iv; for Average VT parotid gland / Average VT thyroid gland: two-tissue compartment analysis
T1 construct: from tissue; host or cells: living rhesus monkeys: brain, thyroid gland, parotid gland, submandibular gland
T1 sequence (O18793 1-360): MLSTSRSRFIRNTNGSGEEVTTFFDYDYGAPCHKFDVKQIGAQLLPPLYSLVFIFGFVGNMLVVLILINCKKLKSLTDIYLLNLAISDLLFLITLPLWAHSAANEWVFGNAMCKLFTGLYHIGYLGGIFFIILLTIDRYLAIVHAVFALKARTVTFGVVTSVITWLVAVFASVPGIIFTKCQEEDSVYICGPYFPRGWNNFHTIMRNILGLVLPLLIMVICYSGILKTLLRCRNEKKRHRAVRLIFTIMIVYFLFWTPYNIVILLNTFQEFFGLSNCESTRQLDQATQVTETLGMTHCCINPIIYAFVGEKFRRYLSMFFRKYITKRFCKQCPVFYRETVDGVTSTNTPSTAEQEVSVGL
Procedure: To evaluate the brain exposure and regional distribution of [^11C]AZD2423 in non-human primate (NHP) brains, PET imaging studies were carried out. Thus, two 123 min dynamic brain PET measurements were performed at baseline and after pretreatment with unlabeled AZD2423 (3 mg/kg), respectively.
PET experiments were conducted on two anesthetized healthy rhesus monkeys weighing 5.3 and 4.7 kg. The study received approval from the Stockholm Animal Research Ethical Committee (Dnr. N452/11) and is comprehensively described in Dahl et al.. Anesthesia was induced via an intramuscular injection of ketamine hydrochloride (approximately 10 mg/kg, Ketalar, Pfizer AB, Stockholm, Sweden) and maintained with a mixture of sevoflurane (2–8%, Abbott Scandinavia AB, Solna, Sweden), oxygen (around 40%), and medical air following endotracheal intubation. The anesthesia level was continuously monitored during the experiment. The head was stabilized using a fixation device, and the body temperature was regulated with a Bair Hugger model 505 (Arizant Healthcare, St. Paul, MN, USA), with continuous monitoring via an esophageal thermometer. ECG, heart rate, blood pressure, respiratory rate, and oxygen saturation were all continuously monitored throughout the experiments.
Two PET measurements were performed on the same experimental day in each of the two monkeys. Baseline PET measurements were conducted using [^11C]AZD2423 with doses of 164 MBq and 157 MBq. A pretreatment PET measurement was also performed, during which an infusion of unlabeled AZD2423 (3.0 mg/kg) occurred over 10 min, starting 30 min before the injection of [^11C]AZD2423 (90 MBq and 158 MBq). In each PET experiment, the radioligand was administered as an intravenous bolus injection over 5 s, coinciding with the start of PET data acquisition. Radioactivity in the brain was continuously measured for 123 min using the high-resolution research tomograph (HRRT; Siemens Molecular Imaging, Knoxville, TN, USA), following a preprogrammed sequence of 34 frames. Arterial blood samples were collected at specified time points (4, 15, 30, 45, and 90 min) and analyzed for radioactivity in blood and plasma, as well as for the presence of the remaining parent compound, [^11C]AZD2423.
The Regions of Interest (ROIs) were delineated manually on MRI images of each NHP for the whole brain, thyroid gland, parotid gland, and submandibular gland. The summed PET images of the entire duration were co-registered with the MRI image of the individual NHP. After applying the co-registration parameters to the dynamic PET data, time–activity curves were generated for all ROIs for each PET measurement. The average SUV was calculated for each ROI. Target occupancy was estimated using the volume of distribution (VT) calculated by a two-tissue compartment model (2TC) with metabolite-corrected plasma radioactivity.

[6] = Radiometabolite analysis in arterial plasma; assay type: in vivo, rhesus monkeys
Procedure: To measure parent radioligand and radiometabolites in plasma, discrete arterial blood samples were drawn at five time points after the injection of [^11C]AZD2423. The radioligand was metabolized rather slowly (Figure 5). At 10 min after injection, approximately 80% of the radioactivity in plasma represented parent radioligand, decreasing to approximately 60% at 90 min. Most radiometabolites detected in plasma eluted with a retention time (tR) of 2.1–2.7 min and were thus less lipophilic than [^11C]AZD2423 (tR = 3.0 min). However, one metabolite with a longer retention time (tR = 3.5 min) was formed (see Supporting Information). These metabolites were not identified and further work would be required to fully characterize these unknown radiometabolites. […]
Two PET measurements were performed on the same experimental day in each of the two monkeys. […] Radioactivity in the brain was continuously measured for 123 min using the high-resolution research tomograph (HRRT; Siemens Molecular Imaging, Knoxville, TN, USA), following a preprogrammed sequence of 34 frames. Arterial blood samples were collected at specified time points (4, 15, 30, 45, and 90 min) and analyzed for radioactivity in blood and plasma, as well as for the presence of the remaining parent compound, [^11C]AZD2423.
Method description and representative radioactivity HPLC trace for radiometabolite analysis. […]

CCR2 [7] = tested on: CCR2; set-up: method as in PMID 33205603; conditions: cited from earlier work
[8] = pretreatment AZD2423 3 mg/kg relative to baseline
[9] = pretreatment AZD2423 3.0 mg/kg relative to baseline
[10] = pretreatment AZD2423 3 mg/kg, n = 2

CC(C)(C)N1CCNC(C(=O)N2CCN(C(=O)Nc3ccc(Cl)c(F)c3)CC2)C1 (stereo not drawn) [AZD2423]
IC50 (CCR2 [1]): 2.6 nM | LogD [2]: 1.85 | Fu (brain) / brain slice distribution [3]: 0.045

CC(C)(C)N1CCNC(C(=O)N2CCN([11C](=O)Nc3ccc(Cl)c(F)c3)CC2)C1 (stereo not drawn) [[^11C]AZD2423]
stability in formulation [4]: up to 60 min | IC50 (CCR1): > 10000 nM | IC50 (CCR2 [1]): 2.6 nM | LogD [2]: 1.85 | pKa [2]: 7.9 | Fu (brain) / brain slice distribution [3]: 0.045 | IC50 (CCR5): > 510 nM | Selectivity over other GPCR (Other GPCR): > 500 fold | SUVpeak brain (CCR2 [5]; NHP, after pretreatment with unlabeled AZD2423 3 mg/kg, n = 2): 0.4 | SUVpeak brain (CCR2 [5]; NHP, baseline, n = 2): 0.4 | SUVpeak parotid gland (CCR2 [5]; NHP, baseline, n = 2): 3.4 | SUVpeak submandibular gland (CCR2 [5]; NHP, baseline, n = 2): 4.4 | SUVpeak thyroid gland (CCR2 [5]; NHP, baseline, n = 2): 3.3 | Average VT parotid gland (CCR2 [5]; baseline, n = 2): 111.1 | Average VT thyroid gland (CCR2 [5]; baseline, n = 2): 53.1 | Percentage decrease of VT parotid gland (CCR2 [5]; [8]): 62.6% | Percentage decrease of VT thyroid gland (CCR2 [5]; [8]): 63.4% | Percentage reduction of binding in the parotid gland (AUC ratio) (CCR2 [5]; [9]): 51.2% | Percentage reduction of binding in the submandibular gland (AUC ratio) (CCR2 [5]; [9]): 49% | Average VT parotid gland (CCR2 [5]; [10]): 41.6 | Average VT thyroid gland (CCR2 [5]; [10]): 19.4 | Parent radioligand, share of radioactivity in plasma ([6]; 10 min after iv injection): approximately 80% | Parent radioligand, share of radioactivity in plasma ([6]; 90 min after iv injection): approximately 60%

CN(CCc1ccc(NC(=O)C2=Cc3cc(-c4ccc(OCCCCC[18F])cc4)ccc3CCC2)cc1)C1CCOCC1 [[^18F]6b]
in vitro affinity to CCR2 (CCR2 [7]): 14 nM
